Data taken from ChEMBL document CHEMBL4400545 (Bioorg Med Chem, 2019).

Molecular target: Sodium- and chloride-dependent GABA transporter 1 (Mus musculus) (UniProt P31648)
Assay: Inhibition of mouse GAT-1 assessed as percentage of remaining specific binding of NO711 at 1 uM after 4 hrs by LC-ESI-MS/ms analysis relative to control

| SMILES | Activity |
| --- | --- |
| O=C(O)C1CCCN(CCO/N=C/COCc2ccccc2)C1 (racemic) | 60% |
| O=Cc1cccnc1Br | 92% |
| COc1ccccc1C=O | 89% |
| O=Cc1ccc(O)cc1 | 89% |
| O=C(O)C1CCCN(CCO/N=C/c2ccc3ccccc3c2)C1 (racemic) | 61% |
| O=Cc1ccccc1-c1ccccc1 | 90% |
| O=C(O)C1CCCN(CCO/N=C/c2csc3ccccc23)C1 (racemic) | 48% |
| CC(C=O)(CCC#N)c1ccccc1 (stereo unspecified) | 92% |
| O=C(O)C1CCCN(CCO/N=C/c2ccc3c(c2)Cc2ccccc2-3)C1 (racemic) | 37% |
| O=Cc1c[nH]nc1-c1ccc(F)cc1 | 92% |
| O=Cc1ccc(C#Cc2ccccc2)s1 | 94% |
| Cc1ccsc1-c1sc(/C=N/OCCN2CCCC(C(=O)O)C2)cc1C (racemic) | 33% |
| O=Cc1ccc(Br)nc1 | 92% |
| O=Cc1cc2c(cc1-c1ccccc1)OCO2 | 92% |
| O=Cc1cc2c(cc1-c1ccccc1Cl)OCO2 | 92% |
| O=Cc1cc2c(cc1-c1ccc(Cl)cc1Cl)OCO2 | 92% |
| O=Cc1ccccc1-c1cccs1 | 92% |
| O=C(O)C1CCCN(CCO/N=C/c2ccc(Br)nc2)C1 (racemic) | 71% |
| O=C(O)C1CCCN(CCO/N=C/c2cc3c(cc2-c2ccccc2)OCO3)C1 (racemic) | 19% |
| O=Cc1ccccc1-c1ccc(Cl)cc1 | 92% |
| O=Cc1cccnc1-c1cccc(Cl)c1 | 80% |
| Cc1ccsc1-c1sc(C=O)cc1C | 97% |

| SMILES | Activity |
| --- | --- |
| O=Cc1ccc2c(c1)Cc1ccccc1-2 | 88% |
| O=Cc1sccc1-c1ccc(F)cc1Cl | 86% |
| O=C(O)C1CCCN(CCO/N=C/c2ccccc2OCc2ccccc2)C1 (racemic) | 29% |
| O=Cc1ccccc1OCc1ccccc1 | 90% |
| COc1ccccc1/C=N/OCCN1CCCC(C(=O)O)C1 (racemic) | 74% |
| O=C(O)C1CCCN(CCO/N=C/c2cc3ccccc3c3ccccc23)C1 (racemic) | 62% |
| O=Cc1cc2c(cc1-c1ccccc1F)OCO2 | 92% |
| O=Cc1cccnc1-c1ccc(Cl)cc1 | 87% |
| O=C(O)C1CCCN(CCO/N=C/c2cc3c(cc2-c2ccccc2F)OCO3)C1 (racemic) | 19% |
| O=C(O)C1CCCN(CCO/N=C/c2cccnc2)C1 (racemic) | 48% |
| O=Cc1cccnc1-c1ccc(Cl)cc1Cl | 86% |
| O=C(O)C1CCCN(CCO/N=C/c2ccc(C#Cc3ccccc3)s2)C1 (racemic) | 48% |
| O=C(O)C1CCCN(CCO/N=C/c2ccc3ccccc3n2)C1 (racemic) | 62% |
| O=Cc1cc(F)ccc1-c1ccccc1 | 80% |
| O=Cc1cccnc1-c1ccccc1F | 80% |
| COc1ccc(/C=N/OCCN2CCCC(C(=O)O)C2)c2ccccc12 (racemic) | 61% |
| O=Cc1sccc1-c1ccc(Cl)cc1Cl | 86% |
| O=Cc1cccc(Oc2ccccc2)c1 | 90% |
| O=Cc1ccc(-c2ccccc2)cc1 | 90% |
| O=Cc1ccc(Br)cn1 | 92% |
| Cc1noc(-c2ccccc2C=O)n1 | 97% |
| O=C(O)C1CCCN(CCO/N=C/c2cccnc2-c2cccc(Cl)c2)C1 (racemic) | 32% |

| SMILES | Activity |
| --- | --- |
| O=Cc1sccc1-n1cccc1 | 92% |
| O=C(O)C1CCCN(CCO/N=C/c2cccnc2-c2ccc(Cl)cc2)C1 (racemic) | 22% |
| O=C(O)C1CCCN(CCO/N=C/c2ccccc2-n2cccc2)C1 (racemic) | 33% |
| O=C(O)C1CCCN(CCO/N=C/c2ccccc2)C1 (racemic) | 74% |
| O=Cc1ccccc1-c1ccccc1F | 93% |
| O=Cc1ccnc2ccccc12 | 87% |
| O=Cc1ccccc1-c1cc(F)ccc1F | 88% |
| O=Cc1cccnc1-c1cccc(F)c1 | 87% |
| O=Cc1ccccc1[N+](=O)[O-] | 92% |
| O=Cc1ccc(-c2ccc(C(F)(F)F)cc2Cl)o1 | 82% |
| O=Cc1ccccc1 | 89% |
| Cc1onc(-c2ccc(Cl)cc2)c1C=O | 92% |
| O=Cc1sccc1-c1ccccc1 | 94% |
| O=Cc1ccccc1-n1cccc1 | 97% |
| O=Cc1ccccc1-n1cccn1 | 88% |
| O=C(O)C1CCCN(CCO/N=C/c2cccnc2-c2ccccc2Cl)C1 (racemic) | 33% |
| O=Cc1ccccc1-c1ccc(F)cc1Cl | 93% |
| O=Cc1ccc(Oc2ccccc2)cc1 | 90% |
| Cc1ccc(/C=N/OCCN2CCCC(C(=O)O)C2)c2ccccc12 (racemic) | 60% |
| O=C(O)C1CCCN(CCO/N=C/c2ccc([N+](=O)[O-])cc2)C1 (racemic) | 60% |
| O=Cc1ccc2ccccc2n1 | 87% |
| O=C(O)C1CCCN(CCO/N=C/c2ccccc2-n2cccn2)C1 (racemic) | 37% |

| SMILES | Activity |
| --- | --- |
| O=C(O)C1CCCN(CCO/N=C/c2cccc(Oc3ccccc3)c2)C1 (racemic) | 29% |
| O=C(O)C1CCCN(CCO/N=C/c2ccc(F)c3ccccc23)C1 (racemic) | 60% |
| O=C(O)C1CCCN(CCO/N=C/c2ccc(Oc3ccccc3)cc2)C1 (racemic) | 29% |
| O=Cc1cccnc1-c1ccccc1 | 87% |
| O=Cc1csc2ccccc12 | 94% |
| O=Cc1ccccc1-c1cccnc1 | 88% |
| O=Cc1ccccc1-c1ccco1 | 80% |
| Cc1ccccc1-c1ncccc1/C=N/OCCN1CCCC(C(=O)O)C1 (racemic) | 22% |
| O=C(O)C1CCCN(CCO/N=C/c2cccc([N+](=O)[O-])c2)C1 (racemic) | 60% |
| O=Cc1ccc([N+](=O)[O-])cc1 | 92% |
| O=Cc1cccc(Br)n1 | 92% |
| O=C(O)C1CCCN(CCO/N=C/c2ccccc2Oc2ccccc2)C1 (racemic) | 37% |
| O=C(O)C1CCCN(CCO/N=C/c2c[nH]c3ncccc23)C1 (racemic) | 45% |
| O=C(O)C1CCCN(CCO/N=C/C2CC3C=CC2C3)C1 (racemic) | 45% |
| O=Cc1ccccn1 | 85% |
| O=C(O)C1CCCN(CCO/N=C/c2cc3c(cc2-c2ccccc2Cl)OCO3)C1 (racemic) | 19% |
| O=Cc1ccccc1-c1ccc(F)cc1 | 92% |
| O=Cc1ccccc1-c1cccc2ccccc12 | 85% |
| O=Cc1c[nH]c2ncccc12 | 85% |
| O=Cc1ccc(OCc2ccccc2)cc1 | 90% |
| Cc1ccccc1-c1ncccc1C=O | 87% |
| O=C(O)C1CCCN(CCO/N=C/c2sccc2-c2ccccc2)C1 (racemic) | 48% |

| SMILES | Activity |
| --- | --- |
| O=C(O)C1CCCN(CCO/N=C/c2ccccc2[N+](=O)[O-])C1 (racemic) | 60% |
| O=Cc1cc(F)ccc1-c1ccccc1Cl | 80% |
| O=Cc1cc(F)ccc1-c1ccccc1F | 80% |
| O=C(O)C1CCCN(CCO/N=C/c2cccnc2-c2cccc(F)c2)C1 (racemic) | 22% |
| O=C(O)C1CCCN(CCO/N=C/c2cc3c(cc2-c2ccc(Cl)cc2Cl)OCO3)C1 (racemic) | 19% |
| O=C(O)C1CCCN(CCO/N=C/c2sccc2-n2cccc2)C1 (racemic) | 60% |
| O=C(O)C1CCCN(CCO/N=C/c2cccnc2-c2ccccc2)C1 (racemic) | 22% |
| O=C(O)C1CCCN(CCO/N=C/c2ccc(O)cc2)C1 (racemic) | 74% |
| O=C(O)C1CCCN(CCO/N=C/c2ccc(Br)cn2)C1 (racemic) | 71% |
| O=C(O)C1CCCN(CCO/N=C/c2ccc(OCc3ccccc3)cc2)C1 (racemic) | 29% |
| O=Cc1ccccc1-c1ccccc1Cl | 93% |
| O=Cc1ccc(-c2ccccc2OC(F)(F)F)o1 | 82% |
| O=C(O)C1CCCN(CCO/N=C/c2cccc3ccccc23)C1 (racemic) | 61% |
| O=C(O)C1CCCN(CCO/N=C/c2ccccn2)C1 (racemic) | 45% |
| O=CC1CC2C=CC1C2 (stereo unspecified) | 85% |
| COc1ccc(C=O)cc1 | 89% |
| O=C(O)C1CCCN(CCO/N=C/c2cccc(Br)n2)C1 (racemic) | 71% |
| O=Cc1cccnc1-c1ccccc1Cl | 97% |
| O=Cc1ccccc1-c1c(F)cccc1F | 88% |
| O=Cc1cc(F)ccc1-c1ccc(Cl)cc1Cl | 82% |
| O=Cc1cccc([N+](=O)[O-])c1 | 92% |
| O=Cc1ccccc1-c1ccc2ccccc2c1 | 86% |

| SMILES | Activity |
| --- | --- |
| O=C(O)C1CCCN(CCO/N=C/c2ccccc2-c2cccc3ccccc23)C1 (racemic) | 45% |
| O=Cc1ccccc1-c1cccc(F)c1 | 92% |
| O=C(O)C1CCCN(CCO/N=C/c2cccnc2Br)C1 (racemic) | 71% |
| Cc1noc(-c2ccccc2/C=N/OCCN2CCCC(C(=O)O)C2)n1 (racemic) | 33% |
| O=Cc1cccn1-c1ccc(C(F)(F)F)cc1 | 82% |
| O=Cc1ccccc1-c1ccc(Cl)cc1Cl | 93% |
| O=C(O)C1CCCN(CCO/N=C/c2ccccc2-c2cccnc2)C1 (racemic) | 37% |
| O=Cc1ccccc1Oc1ccccc1 | 88% |
| O=C(O)C1CCCN(CCO/N=C/c2cccc3c2OCO3)C1 (racemic) | 32% |
| COc1ccc(/C=N/OCCN2CCCC(C(=O)O)C2)cc1 (racemic) | 74% |
| O=Cc1ccccc1-c1cccc(F)c1F | 88% |
| O=C(O)C1CCCN(CCO/N=C/c2ccc(O)c3ccccc23)C1 (racemic) | 61% |
| O=Cc1ccccc1-c1cccc(Cl)c1 | 92% |
| O=C(O)C1CCCN(CCO/N=C/c2c3ccccc3cc3ccccc23)C1 (racemic) | 62% |
| O=Cc1cccnc1 | 94% |
| O=C(O)C1CCCN(CCO/N=C/c2cccnc2-c2ccccc2F)C1 (racemic) | 32% |
| O=Cc1c2ccccc2cc2ccccc12 | 87% |
| O=C(O)C1CCCN(CCO/N=C/c2ccncc2)C1 (racemic) | 60% |
| O=Cc1cccc2c1OCO2 | 80% |
| O=C(O)C1CCCN(CCO/N=C/c2ccccc2-c2ccco2)C1 (racemic) | 32% |
| O=C(O)C1CCCN(CCO/N=C/c2ccnc3ccccc23)C1 (racemic) | 62% |
